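Where inhibition never reached the appropriate level, the endpoint shown equals the highest concentration tested. Otherwise, values were interpolated linearly from a five-concentration, 48-hour dose response in 96-well plates. TGI denotes the concentration required for complete inhibition of growth.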
Assays:
Assay in all cases: inhibition of tumour cell growth, NCI panel, 48 h
[1] = test system: A498 renal
[2] = test system: HT29 colon
[3] = test system: HS 578T breast
[4] = test system: LOX IMVI melanoma
[5] = test system: HCT-15 colon
[6] = test system: MDA-MB-435
[7] = test system: NCI-H226 lung
[8] = test system: ACHN renal
[9] = test system: SR leukemia
[10] = test system: COLO 205 colon
[11] = test system: SF-268 CNS
[12] = test system: HOP-92 NSCLC
[13] = test system: DU-145 prostate
[14] = test system: U251 CNS
[15] = test system: OVCAR-3 ovarian
[16] = test system: NCI-H23 lung
[17] = test system: 786-0 renal
[18] = test system: RXF 393 renal
[19] = test system: RPMI-8226 leukemia

Structure (SMILES)	TGI [1] [µM]	TGI [2] [µM]	TGI [3] [µM]	TGI [4] [µM]	TGI [5] [µM]	TGI [6] [µM]	TGI [7] [µM]	TGI [8] [µM]	TGI [9] [µM]	TGI [10] [µM]	TGI [11] [µM]	TGI [12] [µM]	TGI [13] [µM]	TGI [14] [µM]	TGI [15] [µM]	TGI [16] [µM]	TGI [17] [µM]	TGI [18] [µM]	TGI [19] [µM]
O=C1C2Cc3c(n(C(=O)c4ccccc4)c4ccccc34)CC2C(=O)N1c1ccc(Nc2ccc(N3C(=O)C4Cc5c(n(C(=O)c6ccccc6)c6ccccc56)CC4C3=O)cc2)cc1 (configuration not stated)	> 100	> 100	> 100	> 100	> 100	> 100	> 100	> 100	> 100	> 100	> 100	> 100	> 100	> 100	> 100	> 100	> 100	> 100	
CC1(C)S[C@H](CN)N[C@H]1C(=O)OC(c1ccccc1)c1ccccc1	70.4	> 100	> 100	33.8	> 100	> 100	> 100	> 100	63.6	33.8	> 100	91.6	> 100	> 100		> 100	> 100	> 100	54.2
NC(=O)c1nnsc1NN=O	> 100	> 100	> 100	> 100	> 100	> 100	> 100	> 100	> 100	> 100	> 100		> 100	> 100		> 100	> 100	> 100	> 100
NC(=O)NNCc1c(-c2ccccc2)no[n+]1[O-]	> 100	> 100	> 100	> 100	> 100	> 100	> 100	> 100	> 100	> 100	> 100	> 100	> 100	> 100	> 100	> 100	> 100	> 100	> 100
COc1cc(C(C[N+](=O)[O-])SC(C)=O)ccc1OCc1ccccc1 (configuration not stated)	15.4	> 20.9	12.1	3.35	9.11	10	18.1	24.7	4.86	13	> 100	36.2	27.1	22.7	7.87	12.3	3.74	3.18	4.61
CC(C)[Si]1(C(C)C)OCC2OC(n3c(C(=O)c4ccccc4)cc(=O)[nH]c3=O)CC2O[Si](C(C)C)(C(C)C)O1 (configuration not stated)	24.8	4.22	5.5	3.93	7.89	10.4	5.87	8.58	> 23.8	10.8	8.26	7.14	24.6	9.85	5.09	6.13	9.87	7.37	> 23.3
COc1cc(C2c3[nH]c4ccccc4c3[C@@H](Nc3ccc(C#N)cc3)[C@H]3COC(=O)N23)cc(OC)c1O (some centres not stated)	0.777	> 10	2.49	0.681	5.56	2.19	0.651	0.621	0.059	> 3.81	0.909	> 4.61	0.839	1.32	2.21	2.55	0.337	4.12	0.688
CSc1nn(C)cc2nc(C)nc1-2	> 100	> 100	> 100		> 100	> 100	> 100	> 100	> 100	> 100	> 100		> 100	> 100	> 100	> 100	> 100	> 100	> 100
Oc1cnc2c(O)cccc2c1	> 100	> 100	> 100	> 100	> 100	> 100	85.5	92.9	> 100		> 100	> 100	> 100	> 100	65		> 100		> 100
COC(=O)C1=C(OC(=O)/C=C/c2ccc(Cl)cc2)C(C(=O)OC)[C@]2(O)[C@@H](C(=O)OC)[C@H]1C[C@@H](c1ccccc1)[C@@H]2C(=O)OC (some centres not stated)	44.2	> 100	94	> 70.4	> 47.1	> 100	18.6	> 100	> 100	> 22.2	> 25.4	7.73	> 100	> 100	> 100	> 25.1	> 25.2	> 100	> 100
COc1cc(/C=N/c2ccccn2)cc(OC)c1OC	> 100	> 100	> 100	> 100	> 100	58.6	> 100	> 100	> 100	> 100	> 100	> 100	> 100	> 100	> 100	> 100	> 100	> 100	> 100
CCN(CC)CCCNc1ccc([N+](=O)[O-])c2nc3ccc(OC)cc3c(N)c12	> 10	3.95	2.68	3.37	3.15	3.12	> 10	> 10	4.05	2.67	3.57	> 10	> 4.96	> 10	> 6.31	4.03	2.9	> 10	4.81
O=C(Cn1c(=O)oc2ccc(C(=O)c3ccc(F)cc3)cc21)c1ccccc1	93.3	> 100	> 100	> 100	> 100	> 100	> 100	> 100	> 100	> 100	> 100	> 100	> 100	> 100		> 100	> 100	> 100	> 100

Reference: PubChem BioAssay (NCI)
